Test results taken from patent publication US10701936B2, “Herbicidal composition and method for controlling weeds” (Sumitomo Chemical Company, Limited, priority 2016, dated 2020).

How the values were obtained:
Echinochloa crus-galli = test: Herbicidal effect, foliar spray pot test in greenhouse (Example 102); format: in vivo; conditions: sprayed at 2-3 leaf stage, a week after, scale 0-100
Procedure: (§1) A plastic pot was filled with a commercially-available culture soil, and thereto inubie (common barnyardgrass; Echinochloa crus-galli) or akinoenokorogusa (giant foxtail; Setaria faberi) was seeded, and covered with the soil to about 0.5 cm, followed by growing the weeds in a greenhouse. When the weeds grew to two to three leaf stage, a spray liquid of the compound X, a spray liquid of 2,4-D choline salt, or a spray liquid of the present composition was uniformly sprayed to the whole plants so that the application rate might be a predetermined value. The spray liquid of the present composition was prepared by mixing the spray liquid of the compound X with the spray liquid of 2,4-D choline salt. The spray liquid of the compound X was prepared by mixing a predetermined amount of the formulation X with deionized water. The spray liquid of 2,4-D choline salt was prepared by dissolving 2,4-D choline salt with a 2 wt % solution of TWEEN® 20 (polyoxyethylenesorbitan fatty acid ester, manufactured by MP Biomedicals) in dimethylformamide, followed by mixing with deionized water. After applying the spray liquid, the plants were placed in a greenhouse for a week. A herbicidal effect was evaluated by classifying the effect into 101 stages from 0 (no effect) to 100 (completely dead).
(§2) The expected value of the herbicidal effect in the case of mixed use was calculated from the result of the herbicidal effect in the case of single use of each of the compounds (the value of A or B) according to the formula of Colby ((expected value)=100−(100−A)×(100−B)/100).

Setaria faberi = test: as above; format: in vivo; conditions: sprayed at 2-3 leaf stage, a week after, scale 0-100
Procedure: as §1, §2

[1] = 2,4-D choline salt 50 g/ha alone
[2] = 2,4-D choline salt 500 g/ha alone

Row | Structure (SMILES) | Herbicidal effect on Echinochloa crus-galli (observed value) (Echinochloa crus-galli; Compound X 5 g/ha alone) | Herbicidal effect on Echinochloa crus-galli (observed value) (Echinochloa crus-galli; Compound X 10 g/ha alone) | Herbicidal effect on Setaria faberi (observed value) (Setaria faberi; Compound X 5 g/ha alone) | Herbicidal effect on Setaria faberi (observed value) (Setaria faberi; Compound X 10 g/ha alone) | Herbicidal effect on Echinochloa crus-galli (observed value) (Echinochloa crus-galli; [1]) | Herbicidal effect on Echinochloa crus-galli (observed value) (Echinochloa crus-galli; [2]) | Herbicidal effect on Setaria faberi (observed value) (Setaria faberi; [1]) | Herbicidal effect on Setaria faberi (observed value) (Setaria faberi; [2])
1 | CCOC(=O)COc1ncccc1Oc1cc(-n2c(=O)cc(C(F)(F)F)n(C)c2=O)c(F)cc1Cl [Compound X, ethyl [3-[2-chloro-4-fluoro-5-(1-methyl-6-trifluoromethyl-2,4-dioxo-1,2,3,4-tetrahydropyrimidin-3-yl)phenoxy]-2-pyridyloxy]acetate] | 20 | 35 | 30 | 45 |  |  |  | 
2 | C[N+](C)(C)CCO.O=C([O-])COc1ccc(Cl)cc1Cl [2,4-D choline salt] |  |  |  |  | 0 | 10 | 0 | 10
